Laboratory results as given in patent EP4467141A1, “PYRAZOLO-QUINOLINES AS SELECTIVE INHIBITORS OF GENOTOXIC STRESS-INDUCED IKK/NF- KB PATHWAYS FOR CANCER THERAPY” (Max-Delbrück-Centrum für Molekulare Medizin in der …, priority 2023, dated 2024).

Columns and labels:
Assay in all cases: Kinase panel study
Format in all cases: biochemical
Conditions in all cases: read-out: Percentage of inhibition; for inhibition at 1 µM: 1000nM; for inhibition at 10 µM: 10000nM
ABL1 = molecular target: T1, ABL1 (Homo sapiens, UniProt P00519)
T1 construct: purchased Thermo Fisher Scientific
T1 sequence (P00519 whole entry): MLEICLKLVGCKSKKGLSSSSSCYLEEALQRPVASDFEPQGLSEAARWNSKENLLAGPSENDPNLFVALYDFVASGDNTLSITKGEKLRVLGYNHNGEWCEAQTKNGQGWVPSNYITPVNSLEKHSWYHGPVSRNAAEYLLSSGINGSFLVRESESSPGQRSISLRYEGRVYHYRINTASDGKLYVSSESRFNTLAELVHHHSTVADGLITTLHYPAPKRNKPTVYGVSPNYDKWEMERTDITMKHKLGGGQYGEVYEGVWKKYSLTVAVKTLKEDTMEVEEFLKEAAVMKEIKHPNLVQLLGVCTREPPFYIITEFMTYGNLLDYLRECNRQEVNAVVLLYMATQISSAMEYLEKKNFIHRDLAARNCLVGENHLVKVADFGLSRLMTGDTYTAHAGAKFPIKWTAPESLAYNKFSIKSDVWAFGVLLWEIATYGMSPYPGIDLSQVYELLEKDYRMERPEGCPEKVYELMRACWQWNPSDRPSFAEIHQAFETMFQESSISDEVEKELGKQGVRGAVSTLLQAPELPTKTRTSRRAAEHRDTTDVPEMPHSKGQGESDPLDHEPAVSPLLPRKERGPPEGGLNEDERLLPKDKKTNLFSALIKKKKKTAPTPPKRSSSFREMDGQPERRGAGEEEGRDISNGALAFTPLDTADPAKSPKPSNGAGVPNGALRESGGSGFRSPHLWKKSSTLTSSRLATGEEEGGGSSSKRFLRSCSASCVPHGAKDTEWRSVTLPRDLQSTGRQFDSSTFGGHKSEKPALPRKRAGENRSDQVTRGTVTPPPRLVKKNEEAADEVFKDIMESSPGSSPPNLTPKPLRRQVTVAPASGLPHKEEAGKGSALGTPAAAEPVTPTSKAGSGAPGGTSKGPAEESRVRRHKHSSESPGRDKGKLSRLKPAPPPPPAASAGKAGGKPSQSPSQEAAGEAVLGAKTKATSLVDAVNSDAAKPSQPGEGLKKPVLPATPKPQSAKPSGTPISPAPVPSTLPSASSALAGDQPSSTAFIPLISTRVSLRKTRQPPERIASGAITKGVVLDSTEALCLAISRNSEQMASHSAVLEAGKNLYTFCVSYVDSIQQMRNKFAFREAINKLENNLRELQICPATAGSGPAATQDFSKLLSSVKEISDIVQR
Procedure, shortened: (§1)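 Single-point inhibition data at 10 µM or 1 µM compound are shown. They were generated in ZLyte- or Adapta-format biochemical assays performed externally under standard conditions.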

AURKA (Aurora A) = molecular target: T2, AURKA (Aurora A) (Homo sapiens, UniProt O14965)
T2 construct: purchased Thermo Fisher Scientific
T2 sequence (O14965 1-403): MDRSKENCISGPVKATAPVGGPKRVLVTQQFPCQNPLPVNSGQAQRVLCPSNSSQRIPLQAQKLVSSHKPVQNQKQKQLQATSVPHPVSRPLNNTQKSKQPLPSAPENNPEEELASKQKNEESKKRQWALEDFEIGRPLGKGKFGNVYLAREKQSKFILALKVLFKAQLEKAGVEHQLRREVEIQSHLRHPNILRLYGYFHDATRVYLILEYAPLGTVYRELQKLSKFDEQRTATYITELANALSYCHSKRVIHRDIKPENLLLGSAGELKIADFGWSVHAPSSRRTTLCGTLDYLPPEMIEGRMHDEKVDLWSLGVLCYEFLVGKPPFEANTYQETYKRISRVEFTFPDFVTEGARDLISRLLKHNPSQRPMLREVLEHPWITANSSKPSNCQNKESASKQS
Procedure, shortened: as §1

DYRK3 = molecular target: T3, DYRK3 (Homo sapiens, UniProt O43781)
T3 construct: purchased Thermo Fisher Scientific
T3 sequence (O43781 1-588): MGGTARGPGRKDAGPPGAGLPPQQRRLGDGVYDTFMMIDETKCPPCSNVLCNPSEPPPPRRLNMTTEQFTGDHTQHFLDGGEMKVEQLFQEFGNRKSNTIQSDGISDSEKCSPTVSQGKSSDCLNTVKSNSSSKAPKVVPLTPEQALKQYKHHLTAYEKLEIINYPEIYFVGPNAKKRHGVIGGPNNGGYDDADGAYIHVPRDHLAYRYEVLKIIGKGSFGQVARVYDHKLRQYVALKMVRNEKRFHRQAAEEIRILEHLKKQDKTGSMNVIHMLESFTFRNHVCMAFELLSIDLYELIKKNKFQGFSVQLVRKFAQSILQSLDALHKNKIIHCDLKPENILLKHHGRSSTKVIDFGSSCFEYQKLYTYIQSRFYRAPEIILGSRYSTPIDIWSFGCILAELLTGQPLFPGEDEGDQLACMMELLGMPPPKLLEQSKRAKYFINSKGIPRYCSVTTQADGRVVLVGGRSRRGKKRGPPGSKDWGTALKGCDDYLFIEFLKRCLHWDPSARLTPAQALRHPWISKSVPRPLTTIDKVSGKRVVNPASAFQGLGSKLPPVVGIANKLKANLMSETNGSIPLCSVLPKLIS
Procedure, shortened: as §1

FGFR2 = molecular target: T4, FGFR2 (Homo sapiens, UniProt P21802)
T4 construct: purchased Thermo Fisher Scientific
Procedure, shortened: as §1

LRRK2 G2019S = molecular target: T5, LRRK2 G2019S (Homo sapiens, UniProt Q5S007, G2019S)
T5 construct: purchased Thermo Fisher Scientific
T5 sequence (Q5S007 970-2527 G2019S limits assumed): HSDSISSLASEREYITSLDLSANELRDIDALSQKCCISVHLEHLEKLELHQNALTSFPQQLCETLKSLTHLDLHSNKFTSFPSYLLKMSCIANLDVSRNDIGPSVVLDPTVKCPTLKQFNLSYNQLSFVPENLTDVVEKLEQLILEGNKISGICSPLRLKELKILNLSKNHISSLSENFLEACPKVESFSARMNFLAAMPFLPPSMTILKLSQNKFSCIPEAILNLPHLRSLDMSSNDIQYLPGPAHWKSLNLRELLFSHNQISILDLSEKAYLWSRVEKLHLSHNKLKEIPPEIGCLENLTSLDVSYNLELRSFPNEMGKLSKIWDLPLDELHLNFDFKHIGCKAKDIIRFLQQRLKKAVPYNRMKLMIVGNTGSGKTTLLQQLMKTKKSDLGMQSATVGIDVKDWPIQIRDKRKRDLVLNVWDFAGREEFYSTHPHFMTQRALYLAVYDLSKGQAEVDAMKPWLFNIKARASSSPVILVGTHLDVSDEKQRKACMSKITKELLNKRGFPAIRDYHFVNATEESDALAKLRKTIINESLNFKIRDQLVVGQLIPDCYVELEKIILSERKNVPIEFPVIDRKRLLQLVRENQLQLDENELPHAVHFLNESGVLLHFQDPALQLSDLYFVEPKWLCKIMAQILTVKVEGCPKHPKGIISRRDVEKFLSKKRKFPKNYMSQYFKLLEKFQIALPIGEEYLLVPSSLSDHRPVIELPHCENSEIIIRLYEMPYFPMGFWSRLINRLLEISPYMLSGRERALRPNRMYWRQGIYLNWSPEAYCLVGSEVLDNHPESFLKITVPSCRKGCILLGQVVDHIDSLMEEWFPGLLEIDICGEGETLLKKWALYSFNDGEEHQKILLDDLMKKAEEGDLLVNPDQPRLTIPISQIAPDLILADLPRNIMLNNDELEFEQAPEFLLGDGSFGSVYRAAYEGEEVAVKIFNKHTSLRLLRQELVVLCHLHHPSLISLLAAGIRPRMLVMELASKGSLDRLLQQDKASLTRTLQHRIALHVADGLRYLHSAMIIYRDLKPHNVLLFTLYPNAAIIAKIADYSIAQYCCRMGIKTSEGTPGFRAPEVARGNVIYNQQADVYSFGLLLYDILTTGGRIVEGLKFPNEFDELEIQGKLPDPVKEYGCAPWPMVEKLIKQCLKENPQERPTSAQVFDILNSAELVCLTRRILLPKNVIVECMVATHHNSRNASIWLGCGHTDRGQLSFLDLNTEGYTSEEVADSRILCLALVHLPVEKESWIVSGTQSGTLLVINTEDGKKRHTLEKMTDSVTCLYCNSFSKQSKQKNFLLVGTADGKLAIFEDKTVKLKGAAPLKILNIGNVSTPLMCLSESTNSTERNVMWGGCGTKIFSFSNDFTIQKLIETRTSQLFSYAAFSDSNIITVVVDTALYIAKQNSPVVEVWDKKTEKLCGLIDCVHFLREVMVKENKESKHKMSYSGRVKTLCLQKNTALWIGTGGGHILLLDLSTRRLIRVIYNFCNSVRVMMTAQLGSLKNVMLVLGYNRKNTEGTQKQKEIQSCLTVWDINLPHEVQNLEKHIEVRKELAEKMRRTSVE
Procedure, shortened: as §1

MAPK13 (p38 delta) = molecular target: T6, MAPK13 (p38 delta) (Homo sapiens, UniProt O15264)
T6 construct: purchased Thermo Fisher Scientific
T6 sequence (O15264 1-365): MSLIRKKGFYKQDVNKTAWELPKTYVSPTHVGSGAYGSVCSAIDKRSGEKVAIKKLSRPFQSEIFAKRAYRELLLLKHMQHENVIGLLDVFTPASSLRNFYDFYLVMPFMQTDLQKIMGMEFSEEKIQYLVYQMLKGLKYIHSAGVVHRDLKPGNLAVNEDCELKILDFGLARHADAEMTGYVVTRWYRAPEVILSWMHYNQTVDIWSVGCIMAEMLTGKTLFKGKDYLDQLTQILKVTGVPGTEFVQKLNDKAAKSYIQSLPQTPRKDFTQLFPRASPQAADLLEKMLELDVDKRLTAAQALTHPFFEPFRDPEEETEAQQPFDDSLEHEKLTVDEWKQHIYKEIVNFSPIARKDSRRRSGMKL
Procedure, shortened: as §1

MELK = molecular target: T7, MELK (Homo sapiens, UniProt Q14680)
T7 construct: purchased Thermo Fisher Scientific
Procedure, shortened: as §1

PRKCD (PKC delta) = molecular target: T8, PRKCD (PKC delta) (Homo sapiens, UniProt Q05655)
T8 construct: purchased Thermo Fisher Scientific
T8 sequence (Q05655 whole entry): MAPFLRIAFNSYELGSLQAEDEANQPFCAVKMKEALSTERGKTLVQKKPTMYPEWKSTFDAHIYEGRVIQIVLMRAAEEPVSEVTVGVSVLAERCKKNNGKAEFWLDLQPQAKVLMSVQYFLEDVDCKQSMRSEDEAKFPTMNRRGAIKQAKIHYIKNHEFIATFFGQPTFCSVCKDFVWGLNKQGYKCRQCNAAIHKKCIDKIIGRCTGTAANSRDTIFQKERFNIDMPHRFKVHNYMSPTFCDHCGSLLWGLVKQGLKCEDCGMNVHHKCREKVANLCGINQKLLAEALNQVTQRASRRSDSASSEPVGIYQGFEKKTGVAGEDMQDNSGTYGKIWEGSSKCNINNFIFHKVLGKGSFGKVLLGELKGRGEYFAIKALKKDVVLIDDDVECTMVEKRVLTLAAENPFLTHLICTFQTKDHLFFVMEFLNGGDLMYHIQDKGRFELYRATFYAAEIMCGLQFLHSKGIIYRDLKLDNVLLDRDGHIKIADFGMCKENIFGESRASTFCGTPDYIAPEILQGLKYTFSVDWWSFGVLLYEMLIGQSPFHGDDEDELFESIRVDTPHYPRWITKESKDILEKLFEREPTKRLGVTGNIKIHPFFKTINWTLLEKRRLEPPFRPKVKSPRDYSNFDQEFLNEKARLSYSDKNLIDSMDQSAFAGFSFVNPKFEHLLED
Procedure, shortened: as §1

RPS6KA6 (RSK4) = molecular target: T9, RPS6KA6 (RSK4) (Homo sapiens, UniProt Q9UK32)
T9 construct: purchased Thermo Fisher Scientific
T9 sequence (Q9UK32 whole entry): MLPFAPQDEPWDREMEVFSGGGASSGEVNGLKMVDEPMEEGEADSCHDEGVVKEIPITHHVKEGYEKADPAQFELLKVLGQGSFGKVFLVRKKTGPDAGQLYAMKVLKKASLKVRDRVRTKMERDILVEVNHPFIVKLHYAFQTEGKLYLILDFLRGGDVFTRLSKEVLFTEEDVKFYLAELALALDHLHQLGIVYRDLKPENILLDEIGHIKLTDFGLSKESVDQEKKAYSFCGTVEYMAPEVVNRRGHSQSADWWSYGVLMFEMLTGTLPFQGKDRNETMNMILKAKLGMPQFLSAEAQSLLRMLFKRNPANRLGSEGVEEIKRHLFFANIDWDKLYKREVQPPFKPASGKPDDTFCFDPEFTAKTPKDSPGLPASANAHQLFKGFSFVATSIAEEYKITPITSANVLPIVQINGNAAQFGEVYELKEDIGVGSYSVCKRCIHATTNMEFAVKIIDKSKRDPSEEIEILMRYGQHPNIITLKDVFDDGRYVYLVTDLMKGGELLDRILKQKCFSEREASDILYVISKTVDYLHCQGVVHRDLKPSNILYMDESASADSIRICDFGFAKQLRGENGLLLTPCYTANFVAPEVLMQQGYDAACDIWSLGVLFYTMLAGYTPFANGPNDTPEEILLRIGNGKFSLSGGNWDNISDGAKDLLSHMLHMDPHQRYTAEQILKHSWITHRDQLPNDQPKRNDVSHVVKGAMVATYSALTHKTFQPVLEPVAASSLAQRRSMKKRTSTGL
Procedure, shortened: as §1

SRPK2 = molecular target: T10, SRPK2 (Homo sapiens, UniProt P78362)
T10 construct: purchased Thermo Fisher Scientific
T10 sequence (P78362 whole entry): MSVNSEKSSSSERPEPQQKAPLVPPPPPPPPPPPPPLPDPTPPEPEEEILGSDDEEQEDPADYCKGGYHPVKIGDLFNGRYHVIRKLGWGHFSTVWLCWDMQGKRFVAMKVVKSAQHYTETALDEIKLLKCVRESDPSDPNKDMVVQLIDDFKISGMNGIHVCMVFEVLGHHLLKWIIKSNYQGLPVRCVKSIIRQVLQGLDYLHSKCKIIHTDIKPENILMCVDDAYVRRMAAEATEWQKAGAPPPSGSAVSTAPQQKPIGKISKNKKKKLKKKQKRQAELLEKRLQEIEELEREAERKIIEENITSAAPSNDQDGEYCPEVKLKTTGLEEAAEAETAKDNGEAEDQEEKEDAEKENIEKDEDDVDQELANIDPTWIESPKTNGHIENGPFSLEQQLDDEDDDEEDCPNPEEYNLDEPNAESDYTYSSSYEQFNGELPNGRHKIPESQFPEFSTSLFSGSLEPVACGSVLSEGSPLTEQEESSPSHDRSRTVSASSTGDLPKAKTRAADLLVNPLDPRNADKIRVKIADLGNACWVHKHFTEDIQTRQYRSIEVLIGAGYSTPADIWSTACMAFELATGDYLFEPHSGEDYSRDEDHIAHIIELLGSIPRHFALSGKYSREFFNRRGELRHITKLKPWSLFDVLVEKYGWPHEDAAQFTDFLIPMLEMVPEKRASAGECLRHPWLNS
Procedure, shortened: as §1

SMILES | inhibition at 1 µM (ABL1) [%] | inhibition at 10 µM (ABL1) [%] | inhibition at 1 µM (AURKA (Aurora A)) [%] | inhibition at 10 µM (AURKA (Aurora A)) [%] | inhibition at 1 µM (DYRK3) [%] | inhibition at 10 µM (DYRK3) [%] | inhibition at 1 µM (FGFR2) [%] | inhibition at 10 µM (FGFR2) [%] | inhibition at 1 µM (LRRK2 G2019S) [%] | inhibition at 10 µM (LRRK2 G2019S) [%] | inhibition at 1 µM (MAPK13 (p38 delta)) [%] | inhibition at 10 µM (MAPK13 (p38 delta)) [%] | inhibition at 1 µM (MELK) [%] | inhibition at 10 µM (MELK) [%] | inhibition at 1 µM (PRKCD (PKC delta)) [%] | inhibition at 10 µM (PRKCD (PKC delta)) [%] | inhibition at 1 µM (RPS6KA6 (RSK4)) [%] | inhibition at 10 µM (RPS6KA6 (RSK4)) [%] | inhibition at 1 µM (SRPK2) [%] | inhibition at 10 µM (SRPK2) [%]
COc1ccc2cc3c(N)nn(C(=O)c4cccc(N(C)C)c4)c3nc2c1 [MW05, (3-Amino-7-methoxypyrazolo[3,4-b]quinolin-1-yl)-[3-(dimethylamino)phenyl]methanone] | 4 | 6 | 7 | -5 | 5 | 7 | 0 | -5 | -2 | 16 | 8 | 9 | 28 | 48 | 14 | 0 | 2 | 4 | 4 | 10
COc1ccc2c(c1OC)c(=O)n1c3ccc(O)cc3c3ccnc2c31 [MW01, 5-Hydroxy-10,11-dimethoxy-9H-benzo[c]indolo[3,2,1-ij][1,5]naphthyridin-9-one] | 15 | 27 | 8 | 18 | 17 | 43 | 13 | 11 | 90 | 93 | 13 | 11 | 26 | 54 | 6 | 17 | 5 | 17 | -2 | 0
